Laboratory results from patent US20200157088A1, “BENZENE FUSED HETEROCYCLIC COMPOUND AND USE THEREOF” (TAIWANJ PHARMACEUTICALS CO., LTD., priority 2017, published 2020).

Target: T1, autotaxin (Homo sapiens, UniProt Q13822)
T1 construct: purchased Cayman 10803
Assay: Autotaxin inhibitor screening assay (choline release from LPC)
Type: biochemical
Conditions: not given
Experimental: Autotaxin activity was measured by choline release from LPC in presence or absence of compound.
Twenty (20) ng autotaxin (10803, Cayman, MI, USA) was incubated with 100 μM 14:0 LPC (855575P, Avanti, AL, USA) in a final volume of 100 μL buffer containing 50 mM Tris pH 8.0, 0.01% Triton X-100, 50 mM CaCl2, 1 unit/ml choline oxidase, 2 unit/ml HRP, 2 mM homovanilic acid (HVA). The relative amount of released choline was measured by HVA fluorescence in a 96-well plate. Fluorescent intensity was determined at λex/λem=320/450 nm every 60 seconds for 90 minutes with a SpectraMax i3 (Molecular Devices, CA, USA). Data analysis was performed using GraphPad Prism (GraphPad, La Jolla Calif., USA).
Inhibition %=[1−SlopeTA−SlopeBlank)/(Slopevehicle−SlopeBlank)]×100%

SMILES | inhibition at 1 µM [%]
CN(C(=O)OCc1cc(Cl)cc(Cl)c1)C1CCc2ccc(C3=CCN(CC(=O)N4CCC(=O)CC4)CC3)cc21 (centres unmarked) [Compound 11] | 50 to 80
CN(c1nc(-c2ccccc2)cs1)C1CCc2ccc(N3CCN(CC(=O)N4CC(O)C4)CC3)cc21 (centres unmarked) [Compound 44] | < 50
CN(c1nc(-c2ccc(Cl)cc2)c(C#N)s1)C1CCCc2ccc(N3CCN(CC(=O)N4CC(O)C4)CC3)cc21 (centres unmarked) [Compound 51] | < 50
Cc1cc(Cl)cc(COC(=O)N(C)C2CCc3ccc(C4=CCN(C(=O)CN5C(=O)CSC5=S)CC4)cc32)c1 (centres unmarked) [Compound 92] | > 80

Same assay, conditions: inhibition of autotaxin enzyme activity at 1 μM compound; 100 μM 14:0 LPC; read-out: Inhibition

SMILES | inhibition at 1 µM [%]
CN(C(=O)OCc1cc(Cl)cc(Cl)c1)C1CCc2ccc(C3=CCN(CC(=O)N4CC(O)C4)CC3)cc21 (centres unmarked) [Compound 8, 3,5-dichlorobenzyl(6-(1-(2-(3-hydroxyazetidin-1-yl)-2-oxoethyl)-1,2,3,6-tetrahydropyridin-4-yl)-2,3-dihydro-1H-inden-1-yl)(methyl)carbamate] | 50 to 80
CN(C(=O)OCc1cc(Cl)cc(Cl)c1)C1CCc2ccc(C3=CCN(C(=O)CN4C(=O)CSC4=S)CC3)cc21 (centres unmarked) [Compound 9, 3,5-dichlorobenzyl methyl(6-(1-(2-(4-oxo-2-thioxothiazolidin-3-yl)acetyl)-1,2,3,6-tetrahydropyridin-4-yl)-2,3-dihydro-1H-inden-1-yl)carbamate] | > 80
CN(C(=O)OCc1cc(Cl)cc(Cl)c1)C1CCc2ccc(C3=CCN(CC(=O)N4CCOCC4)CC3)cc21 (centres unmarked) [Compound 10] | 50 to 80
CN(C(=O)OCc1cc(Cl)cc(Cl)c1)C1CCc2ccc(C3=CCN(CC(=O)N4CC[C@@H](O)C4)CC3)cc21 (some centres unmarked) [Compound 12] | 50 to 80
CN(C(=O)OCc1cc(Cl)cc(Cl)c1)C1CCc2ccc(C3=CCN(CC(=O)N4CCCC4)CC3)cc21 (centres unmarked) [Compound 13] | < 50
CCN(CC)C(=O)CN1CC=C(c2ccc3c(c2)C(N(C)C(=O)OCc2cc(Cl)cc(Cl)c2)CC3)CC1 (centres unmarked) [Compound 14] | < 50
CCOC(=O)N1CCN(C(=O)CN2CC=C(c3ccc4c(c3)C(N(C)C(=O)OCc3cc(Cl)cc(Cl)c3)CC4)CC2)CC1 (centres unmarked) [Compound 15] | < 50
CN(C(=O)OCc1cc(Cl)cc(Cl)c1)C1CCc2ccc(C3=CCN(CC(=O)N4CCS(=O)(=O)CC4)CC3)cc21 (centres unmarked) [Compound 16] | 50 to 80
CN(C(=O)OCc1cc(Cl)cc(Cl)c1)C1CCc2ccc(C3=CCN(CC(=O)N4CCN(S(C)(=O)=O)CC4)CC3)cc21 (centres unmarked) [Compound 17] | 50 to 80
CN(C(=O)OCc1cc(Cl)cc(Cl)c1)C1CCc2ccc(C3=CCN(C(=O)CN4CCOCC4)CC3)cc21 (centres unmarked) [Compound 18] | > 80
CN(C(=O)OCc1cc(Cl)cc(Cl)c1)C1CCc2ccc(C3=CCN(CC(=O)N4CCCC(O)C4)CC3)cc21 (centres unmarked) [Compound 19] | < 50
CN(C(=O)OCc1cc(Cl)cc(Cl)c1)C1CCc2ccc(C3=CCN(CC(=O)NS(C)(=O)=O)CC3)cc21 (centres unmarked) [Compound 20] | 50 to 80
CN(C(=O)OCc1cc(Cl)cc(Cl)c1)C1CCc2ccc(C3=CCN(CC(=O)N(C)S(C)(=O)=O)CC3)cc21 (centres unmarked) [Compound 21] | 50 to 80
CN(C(=O)OCc1cc(Cl)cc(Cl)c1)C1CCc2ccc(C3=CCN(C(=O)CS(C)(=O)=O)CC3)cc21 (centres unmarked) [Compound 22] | > 80
CN(C(=O)OCc1cc(Cl)cc(Cl)c1)C1CCc2ccc(C3=CCN(C(=O)C(=O)N4CCOCC4)CC3)cc21 (centres unmarked) [Compound 23] | 50 to 80
CN(C(=O)OCc1cc(Cl)cc(Cl)c1)C1CCc2ccc(C3=CCN(C(=O)CN4CC(O)C4)CC3)cc21 (centres unmarked) [Compound 24] | < 50
CN(C(=O)OCc1cc(Cl)cc(Cl)c1)C1CCc2ccc(C3=CCN(C(=O)CN4CCN(S(C)(=O)=O)CC4)CC3)cc21 (centres unmarked) [Compound 25] | > 80
CN(C(=O)OCc1cc(Cl)cc(Cl)c1)C1CCc2ccc(C3=CCN(C(=O)CN4C(=O)CCC4=O)CC3)cc21 (centres unmarked) [Compound 26] | < 50
CN(C(=O)OCc1cc(Cl)cc(Cl)c1)C1CCc2ccc(C3=CCN(C(=O)CN4C(=O)C=CC4=O)CC3)cc21 (centres unmarked) [Compound 27] | > 80
CN(C(=O)OCc1cc(Cl)cc(Cl)c1)C1CCc2ccc(C3=CCN(C(=O)CCN4C(=O)CSC4=S)CC3)cc21 (centres unmarked) [Compound 28] | 50 to 80
CN(C(=O)OCc1cc(Cl)cc(Cl)c1)C1CCc2ccc(C3=CCN(C(=O)CNS(C)(=O)=O)CC3)cc21 (centres unmarked) [Compound 29] | > 80
CN(C(=O)OCc1cc(Cl)cc(Cl)c1)C1CCc2ccc(C3=CCN(C(=O)CN(C)S(C)(=O)=O)CC3)cc21 (centres unmarked) [Compound 30] | > 80

SMILES | inhibition at 1 µM [%]
CN(C(=O)OCc1cc(Cl)cc(Cl)c1)C1CCc2ccc(N3CCN(CC(=O)N4CC(O)C4)CC3)cc21 (centres unmarked) [Compound 33, 3,5-dichlorobenzyl (6-(4-(2-(3-hydroxyazetidin-1-yl)-2-oxoethyl)piperazin-1-yl)-2,3-dihydro-1H-inden-1-yl)(methyl)carbamate] | 50 to 80
CN(C(=O)OCc1cc(Cl)cc(Cl)c1)C1CCc2ccc(N3CCN(C(=O)CN4CCOCC4)CC3)cc21 (centres unmarked) [Compound 34, 3,5-dichlorobenzyl methyl(6-(4-(2-morpholinoacetyl)piperazin-1-yl)-2,3-dihydro-1H-inden-1-yl)carbamate] | 50 to 80
CN(C(=O)OCc1cc(Cl)cc(Cl)c1)C1CCc2ccc(N3CCN(C(=O)CN4C(=O)CSC4=S)CC3)cc21 (centres unmarked) [Compound 36] | > 80
CN(C(=O)OCc1cc(Cl)cc(Cl)c1)C1CCc2ccc(N3CCN(C(=O)CS(C)(=O)=O)CC3)cc21 (centres unmarked) [Compound 37] | 50 to 80
CN(C(=O)OCc1cc(Cl)cc(Cl)c1)C1CCCc2ccc(N3CCN(CC(=O)N4CC(O)C4)CC3)cc21 (centres unmarked) [Compound 38] | < 50
CN(c1nc(-c2ccc(F)cc2)cs1)C1CCc2ccc(N3CCN(CC(=O)N4CC(O)C4)CC3)cc21 (centres unmarked) [Compound 43, 2-(4-(3-((4-(4-fluorophenyl)thiazol-2-yl)(methyl)amino)-2,3-dihydro-1H-inden-5-yl)piperazin-1-yl)-1-(3-hydroxyazetidin-1-yl)ethan-1-one] | < 50
CN(c1nc(-c2ccc(F)cc2)c(C#N)s1)C1CCc2ccc(N3CCN(CC(=O)N4CC(O)C4)CC3)cc21 (centres unmarked) [Compound 50, 4-(4-fluorophenyl)-2-((6-(4-(2-(3-hydroxyazetidin-1-yl)-2-oxoethyl)piperazin-1-yl)-2,3-dihydro-1H-inden-1-yl)(methyl)amino)thiazole-5-carbonitrile] | < 50
CN(c1nc(-c2ccc(Cl)cc2)c(C#N)s1)C1CCc2ccc(N3CCN(CC(=O)N4CC(O)C4)CC3)cc21 (centres unmarked) [Compound 52] | < 50
CN(c1nc(-c2ccc(F)cc2)c(C#N)s1)C1CCCc2ccc(N3CCN(CC(=O)N4CC(O)C4)CC3)cc21 (centres unmarked) [Compound 53] | < 50
CN(c1nc(-c2ccc(Cl)cc2)c(C#N)s1)C1CCc2ccc(N3CCN(C(=O)CN4C(=O)CSC4=S)CC3)cc21 (centres unmarked) [Compound 54] | < 50
CN(c1nc(-c2ccc(Cl)cc2)c(C#N)s1)C1CCc2ccc(C3=CCN(CC(=O)N4CC(O)C4)CC3)cc21 (centres unmarked) [Compound 58, 4-(4-chlorophenyl)-2-((6-(1-(2-(3-hydroxyazetidin-1-yl)-2-oxoethyl)-1,2,3,6-tetrahydropyridin-4-yl)-2,3-dihydro-1H-inden-1-yl)(methyl)amino)thiazole-5-carbonitrile] | < 50
CN(c1nc(-c2cc(Cl)cc(Cl)c2)c(C#N)s1)C1CCc2ccc(C3=CCN(CC(=O)N4CC(O)C4)CC3)cc21 (centres unmarked) [Compound 59] | < 50
CCC1Cc2ccc(C3=CCN(CC(=O)N4CC(O)C4)CC3)cc2C1N(C)c1nc(-c2ccc(Cl)cc2)c(C#N)s1 (centres unmarked) [Compound 60] | < 50
CCC1Cc2ccc(C3=CCN(CC(=O)N4CC(O)C4)CC3)cc2C1N(C)c1nc(-c2cc(Cl)cc(Cl)c2)c(C#N)s1 (centres unmarked) [Compound 61] | < 50
CN(C(=O)OCc1cc(Cl)cc(Cl)c1)c1coc2ccc(N3CCN(C(=O)CN4C(=O)CSC4=S)CC3)cc12 [Compound 66, 3,5-dichlorobenzyl methyl(5-(4-(2-(4-oxo-2-thioxothiazolidin-3-yl)acetyl)piperazin-1-yl)benzofuran-3-yl)carbamate] | > 80
CN(C(=O)OCc1cc(Cl)cc(Cl)c1)c1coc2ccc(C3=CCN(C(=O)CN4C(=O)CSC4=S)CC3)cc12 [Compound 69, 3,5-dichlorobenzyl methyl(5-(1-(2-(4-oxo-2-thioxothiazolidin-3-yl)acetyl)-1,2,3,6-tetrahydropyridin-4-yl)benzofuran-3-yl)carbamate] | > 80
CN(CCOc1ccc(F)cc1F)C1CCc2ccc(N3CCN(CC(=O)N4CC(O)C4)CC3)cc21 (centres unmarked) [Compound 73] | < 50
CN(CCOc1ccc(F)cc1F)C1CCCc2ccc(N3CCN(CC(=O)N4CC(O)C4)CC3)cc21 (centres unmarked) [Compound 74] | < 50
N#Cc1cn(Cc2coc3ccc(C4=CCN(CC(=O)N5CC(O)C5)CC4)cc23)nc1-c1ccc(Cl)cc1 [Compound 82, 3-(4-chlorophenyl)-1-((5-(1-(2-(3-hydroxyazetidin-1-yl)-2-oxoethyl)-1,2,3,6-tetrahydropyridin-4-yl)benzofuran-3-yl)methyl)-1H-pyrazole-4-carbonitrile] | < 50
CN(C(=O)OCc1cc(Cl)cc(Cl)c1)c1csc2ccc(C3=CCN(C(=O)CN4C(=O)CSC4=S)CC3)cc12 [Compound 85] | > 80
CN(C(=O)OCc1cc(Cl)cc(C(F)(F)F)c1)C1CCc2ccc(C3=CCN(C(=O)CN4C(=O)CSC4=S)CC3)cc21 (centres unmarked) [Compound 93] | > 80
